This note sets out measurements from patent US11160808B2, “Compounds that enhance Atoh1 expression” (Massachusetts Eye & Ear Infirmary, priority 2008, dated 2021).

Read-outs that look alike come from different tables or passages of the source.

Data set [1] can be described thus: LD50 (median lethal dose) determination. It counts as cell-based. From the text: IC50 is a measure of the effectiveness of a compound in inhibiting biological or biochemical function. LD50 is the amount of a compound required to kill half the members of a tested population.
In data set [2] the test system is Math1 enhancer and minimal promoter Luciferase reporter in HEK cells. Put plainly: Math1 Luciferase reporter assay in HEK cells. The format is cell-based, human. From the text: A human embryonic kidney (HEK) cell line stably expressing a Luciferase gene controlled by an Math1 enhancer and minimal promoter was used in a high-throughput screen (HTS) of 144,000 small molecules to identify compounds that increase Math1 expression (i.e., transcription and/or translation). Such compounds can be used to increase the conversion of stem cells, progenitor cells, and support cells to or towards a hair cell. Screens to identify such compounds are described by Li et al., (U.S. Publication No. 2005/0287127) and Li et al., (U.S. application Ser. No. 11/953,797).
HEK cells stably expressing the Math1 Luciferase reporter were plated onto 384 well plates and cultured overnight in medium containing 10% fetal calf serum (FCS). Activation of the Math1 enhancer was measured by the increase in luminescence on a plate reader following addition of a luciferase detection agent. The assay was optimized for cell number, time of incubation, volume of medium, cell lysis reagent and luciferase reagent. Luminescence levels were compared in cells with the Math1-luciferase construct with and without retinoic acid (1 μM), and/or a luciferase construct with and without the Math1 enhancer and minimal promoter region.
To improve assay sensitivity, and reduce the coefficient of variation (CV), a more sensitive luciferase reagent (BriteLite luciferase reporter assay reagent, Perkin Elmer) was used, and Triton-X-100 was added to the lysis reagent to ensure complete lysis of the cells. Following these changes a CV of 4.2% was recorded. These conditions were used for all high-throughput screens. The luminescence threshold for a compound to be positive was defined as a 2-fold increase above the control (e.g., cells exposed to DMSO).
Cells were seeded on 384 well plates and allowed to attach overnight at 37° C. with 5% CO2 in the absence of growth factors. Math1 activation was measured by the increase in luminescence on a plate reader following addition of a luciferase detection reagent. Luminescence was assessed at 24, 48, and 72 hours. These conditions were used to screen 144,000 compounds contained in the small molecule libraries at Harvard University's Laboratory for Drug Discovery in Neurodegeneration (LDDN).
HTS were performed using HEK-Math1 cells seeded in 384 well plates. One compound was added per well using pin transfer. The final concentration of each compound was […]. Cell were incubated in the presence of a compound for 48 hours at 37° C. with 5% CO2. Cell lysates then were collected and bioluminescence determined. Luminescence values were compared normalized against DMSO.
About 20000 compounds were screened per week in 50 plates of 384 well with the aid of robotic systems (Beckman Biomek FX). Compounds were screened at an average final concentration of 0.7 μM (in 0.04% DMSO) with each plate containing 16 wells of 1 μM retinoic acid, as a positive control, and 16 wells of 0.04% DMSO, as a vehicle control. Percent activation of luminescence in the test compounds was determined for cells treated with the compounds against cells treated with DMSO.
Ten compounds, randomly selected from the group of 110 compounds identified in Example 2, were further evaluated, as follows. HEK cells were plated on 96 well plates at a density of 100000 cells per well. One day after plating, 0.1, 1, and 5 μM of each positive compound was added per well in a 10% fetal bovine serum (FBS) DMEM solution. Cells were then lysed 48 hours after addition of the compound and Math1 expression was analyzed using a luciferase reporter assay, as described above, and real-time PCR.
The half maximal inhibitory concentration (IC50) and median lethal dose or Lethal Dose, 50% (LD50) were determined for each of the compounds identified in Example 2 using standard laboratory techniques. IC50 is a measure of the effectiveness of a compound in inhibiting biological or biochemical function. LD50 is the amount of a compound required to kill half the members of a tested population.
On the technique in general: A reporter such as luciferase makes a cellular process visible.

[3] abbreviates: Homo sapiens, HEK293; read-out: IC50.
Setting [4] is: Homo sapiens, HEK293; read-out: Maximum (Fold DMSO).

By IC50 is commonly meant the concentration that gives 50% inhibition. For the molecule `Cc1cccc(/C(N)=N/OC(=O)c2cccnc2)c1` [CP-0069934, (Z)-3-methyl-N′-(nicotinoyloxy) benzimidamide], the “LD50” value in data set [1] is over 10 µM. Besides, the IC50 in data set [2] (setting [3]) came out at 2000 nM. Besides, the maximal fold induction in data set [2] (setting [4]) came to 1.7.
`Brc1ccc(C2C=C(c3cccnc3)Nc3nc4ccccc4n32)cc1` (stereo not drawn) [CP-0131763, 2-(3-pyridyl)-4-(4-bromophenyl)-1,4-dihydrobenzo[4,5]imi-dazo[1,2-a]pyrimidine]: in data set [1], the “LD50” value is over 10 µM. Further, the IC50 in data set [2] (Homo sapiens, HEK293) amounted to 2000 nM. Further, the maximal fold induction in data set [2] (Homo sapiens, HEK293, read-out: Maximum (Fold DMSO)) worked out at 2.4.
Consider `COc1ccc(-c2csc(Nc3ncccc3C)n2)cc1` [CP-0071862, 4-(4-methoxyphenyl)-N-(3-methylpyridin-2-yl)thiazol-2-amine], for which the “LD50” value in data set [1] is over 10 µM. The IC50 in data set [2] (setting [3]) came out at 700 nM. Besides, the maximal fold induction in data set [2] (setting [4]) is 1.8.
Turning to `COc1ccc(-c2nc3ccc(Cl)cc3n2OCc2ccccc2Cl)cc1` [CP-0000550, 6-chloro-1-(2-chlorobenzyloxy)-2-(4-methoxyphenyl)-1H-benzo[d]imidazole], the “LD50” value in data set [1] is over 30 µM. Further, the IC50 in data set [2] (setting [3]) was 30 nM. In addition, the maximal fold induction in data set [2] (setting [4]) was 2.
Taken in the same sequence, the figures for `O=C(COc1ccccc1)N1CCc2ccccc21` [CP-0110644, 1-(indolin-1-yl)-2-phenoxyethanone] were over 10 µM, 1000 nM and 1.8.
Taken in the same sequence, the figures for `Cc1ccc(-c2cnc3ccccc3n2)cc1C` [CP-0045061, 2-(3,4-dimethylphenyl) quinoxaline] were over 10 µM, 3000 nM and 1.9.
Taken in the same sequence, the figures for `NC(=O)c1c(NC(=O)c2cc3ccccc3o2)sc2c1CCC2` [CP-0087336, N-(3-carbamoyl-5,6-dihydro-4H-cyclopenta[b]thiophen-2-yl)benzofuran-2-carboxamide] were over 10 µM, 80 nM and 2.2.
Consider `CNc1ccccc1C(=O)NCCc1ccccc1` [CP-0007991, 2-(methylamino)-N-phenethylbenzamide], for which the “LD50” value in data set [1] is over 10 µM. Further, the IC50 in data set [2] (setting [3]) came out at 600 nM. Further, the maximal fold induction in data set [2] (setting [4]) was 2.
`O=C(c1cc(-c2ccc(Br)cc2)on1)N1CCOCC1` [CP-0075627, (5-(4-bromophenyl)isoxazol-3-yl)(morpholino)methanone]: the “LD50” value in data set [1] is over 10 µM. The IC50 in data set [2] (setting [3]) amounted to 8000 nM. Besides, the maximal fold induction in data set [2] (setting [4]) turned out to be 2.
For the molecule `N#Cc1c(NC(=O)c2ccccc2F)sc2c1CCCC2` [CP-0060852, N-(3-cyano-4,5,6,7-tetrahydrobenzo[b]thio-phen-2-yl)-2-fluorobenzamide], the “LD50” value in data set [1] was over 10 µM. In data set [2] (setting [3]), the IC50 worked out at 2500 nM. For the same molecule, in data set [2] (setting [4]), the maximal fold induction was 1.8.
Taken in the same sequence, the figures for `O=C(c1ccc(-c2ccc(Br)cc2)o1)N1CCOCC1` [CP-0061777, (5-(4-bromophenyl)furan-2-yl)(morpholino)methanone] were over 10 µM, over 10000 nM and 2.1.
Take `O=C(NCCOc1ccc(F)cc1)c1cccs1` [CP-0072271, N-(2-(4-fluorophenoxy)ethyl)thio-phene-2-carboxamide]: the “LD50” value in data set [1] was over 10 µM. For the same molecule, the IC50 in data set [2] (setting [3]) was 1000 nM. The maximal fold induction in data set [2] (setting [4]) turned out to be 2.2.
With `Fc1ccccc1-c1noc(NCCCN2CCCCC2)n1` [CP-0130665, 3-(2-fluorophenyl)-N-(3-(piperidin-1-yl)propyl)-1,2,4-oxadiazol-5-amine], the “LD50” value in data set [1] is over 10 µM. Further, the IC50 in data set [2] (setting [3]) turned out to be 300 nM. Moreover, the maximal fold induction in data set [2] (setting [4]) worked out at 2.
Taken in the same sequence, the figures for `Brc1ccc(-c2nc(-c3cccnc3)no2)cc1` [CP-0070367, 5-(4-bromophenyl)-3-(pyridin-3-yl)-1,2,4-oxadiazole] were over 10 µM, 2000 nM and 1.7.
Taken in the same sequence, the figures for `O=C(NCCSc1ccccc1)c1cncc(Br)c1` [CP-0089966, 5-bromo-N-(2-(phenylthio)ethyl) nicotinamide] were over 10 µM, over 10000 nM and 2.2.
Taken in the same sequence, the figures for `CCn1ccc(C(=O)Nc2cc(Cl)ccc2Cl)n1` [CP-0070844, N-(2,5-dichlorophenyl)-1-ethyl-1H-pyrazole-3-carboxamide] were over 10 µM, 2000 nM and 1.7.
With `Cn1c(COc2ccc(F)cc2)nc2ccccc21` [CP-0074806, 2-((4-fluorophenoxy)methyl)-1-methyl-1H-benzo[d]imidazole], in data set [1], the “LD50” value was over 10 µM. In data set [2] (setting [3]), the IC50 is 700 nM. In data set [2] (setting [4]), the maximal fold induction was found to be 1.8.
As to `COc1ccc(Br)c(-c2nc(-c3cccs3)no2)c1` [CP-0104904, 5-(2-bromo-5-methoxyphenyl)-3-(thiophen-2-yl)-1,2,4-oxadiazole], the “LD50” value in data set [1] is over 10 µM. In addition, the IC50 in data set [2] (setting [3]) was over 10000 nM. Also, in data set [2] (setting [4]), the maximal fold induction came to 2.2.
Taken in the same sequence, the figures for `Fc1ccc(-c2cnc(N3CCOCC3)nc2)cc1` [CP-0059642, 4-(5-(4-fluorophenyl)pyrimidin-2-yl)morpholine] were over 10 µM, 1000 nM and 2.2.
Taken in the same sequence, the figures for `O=C(Cn1nnc2ccccc21)NC1Cc2ccccc2C1` [CP-0009883, 2-(1H-benzo[d][1,2,3]triazol-1-yl)-N-(2,3-dihydro-1H-inden-2-yl)acetamide] were over 10 µM, 2500 nM and 2.3.
Taken in the same sequence, the figures for `NC(=O)c1sc2nc3c(cc2c1N)CCCCC3` [CP-0066751, 3-amino-6,7,8,9-tetrahydro-5H-cyclohepta[e]thieno[2,3-b]pyridine-2-carboxamide] were over 10 µM, 1000 nM and 1.9.
With `Cc1cc(Cl)ccc1OCc1nc(-c2ccncc2)no1` [CP-0067108, 5-((4-chloro-2-methylphenoxy)methyl)-3-(pyridin-4-yl)-1,2,4-oxadiazole], the “LD50” value in data set [1] was over 10 µM. In addition, the IC50 in data set [2] (setting [3]) was 3000 nM. In addition, in data set [2] (setting [4]), the maximal fold induction is 1.8.
Take `O=C(Nc1ccc(Cl)cn1)c1ccc(Br)cc1` [CP-0060729, 4-bromo-N-(5-chloropyridin-2-yl)benzamide]: the “LD50” value in data set [1] was over 10 µM. Further, in data set [2] (setting [3]), the IC50 was determined as 200 nM. Besides, the maximal fold induction in data set [2] (setting [4]) came out at 1.6.
On to `Cc1ccc2nc(-c3cc4ccccc4oc3=N)[nH]c2c1` [CP-0091818, 3-(6-methyl-1H-benzo[d]imidazol-2-yl)-2H-chromen-2-imine], for which the “LD50” value in data set [1] was over 10 µM. For the same molecule, the IC50 in data set [2] (setting [3]) worked out at 900 nM. Besides, the maximal fold induction in data set [2] (setting [4]) worked out at 2.1.
Taken in the same sequence, the figures for `CCN(CC)c1ncnc2c1cnn2-c1cccc(C)c1` [CP-0079810, N,N-diethyl-1-m-tolyl-1H-pyrazolo[3,4-d]pyrimidin-4-amine] were over 10 µM, 3000 nM and 2.3.
With `COc1ccc(-c2csc(-c3c(C)noc3N)n2)cc1` [CP-0105343, 4-(4-(4-methoxyphenyl)thiazol-2-yl)-3-methylisoxazol-5-amine], the “LD50” value in data set [1] was over 10 µM. Also, the IC50 in data set [2] (setting [3]) is 3000 nM. Moreover, in data set [2] (setting [4]), the maximal fold induction came out at 2.
